The record followed here is ChEMBL document CHEMBL2074335, “Cloning and functional characterization of the multidrug resistance-associated protein (MRP1/ABCC1) from the cynomolgus monkey” (Mol Cancer Ther, 2003).

For this data set, the target named is Multidrug resistance-associated protein 1 (Homo sapiens, UniProt P33527). Kind of data set: TP_TRANSPORTER: drug resistance in MRP1-expressing PEAKSTABEL cells. It is filed as functional, cell-based. Particulars: peakstable.
Sequence of Multidrug resistance-associated protein 1 (P33527 whole entry): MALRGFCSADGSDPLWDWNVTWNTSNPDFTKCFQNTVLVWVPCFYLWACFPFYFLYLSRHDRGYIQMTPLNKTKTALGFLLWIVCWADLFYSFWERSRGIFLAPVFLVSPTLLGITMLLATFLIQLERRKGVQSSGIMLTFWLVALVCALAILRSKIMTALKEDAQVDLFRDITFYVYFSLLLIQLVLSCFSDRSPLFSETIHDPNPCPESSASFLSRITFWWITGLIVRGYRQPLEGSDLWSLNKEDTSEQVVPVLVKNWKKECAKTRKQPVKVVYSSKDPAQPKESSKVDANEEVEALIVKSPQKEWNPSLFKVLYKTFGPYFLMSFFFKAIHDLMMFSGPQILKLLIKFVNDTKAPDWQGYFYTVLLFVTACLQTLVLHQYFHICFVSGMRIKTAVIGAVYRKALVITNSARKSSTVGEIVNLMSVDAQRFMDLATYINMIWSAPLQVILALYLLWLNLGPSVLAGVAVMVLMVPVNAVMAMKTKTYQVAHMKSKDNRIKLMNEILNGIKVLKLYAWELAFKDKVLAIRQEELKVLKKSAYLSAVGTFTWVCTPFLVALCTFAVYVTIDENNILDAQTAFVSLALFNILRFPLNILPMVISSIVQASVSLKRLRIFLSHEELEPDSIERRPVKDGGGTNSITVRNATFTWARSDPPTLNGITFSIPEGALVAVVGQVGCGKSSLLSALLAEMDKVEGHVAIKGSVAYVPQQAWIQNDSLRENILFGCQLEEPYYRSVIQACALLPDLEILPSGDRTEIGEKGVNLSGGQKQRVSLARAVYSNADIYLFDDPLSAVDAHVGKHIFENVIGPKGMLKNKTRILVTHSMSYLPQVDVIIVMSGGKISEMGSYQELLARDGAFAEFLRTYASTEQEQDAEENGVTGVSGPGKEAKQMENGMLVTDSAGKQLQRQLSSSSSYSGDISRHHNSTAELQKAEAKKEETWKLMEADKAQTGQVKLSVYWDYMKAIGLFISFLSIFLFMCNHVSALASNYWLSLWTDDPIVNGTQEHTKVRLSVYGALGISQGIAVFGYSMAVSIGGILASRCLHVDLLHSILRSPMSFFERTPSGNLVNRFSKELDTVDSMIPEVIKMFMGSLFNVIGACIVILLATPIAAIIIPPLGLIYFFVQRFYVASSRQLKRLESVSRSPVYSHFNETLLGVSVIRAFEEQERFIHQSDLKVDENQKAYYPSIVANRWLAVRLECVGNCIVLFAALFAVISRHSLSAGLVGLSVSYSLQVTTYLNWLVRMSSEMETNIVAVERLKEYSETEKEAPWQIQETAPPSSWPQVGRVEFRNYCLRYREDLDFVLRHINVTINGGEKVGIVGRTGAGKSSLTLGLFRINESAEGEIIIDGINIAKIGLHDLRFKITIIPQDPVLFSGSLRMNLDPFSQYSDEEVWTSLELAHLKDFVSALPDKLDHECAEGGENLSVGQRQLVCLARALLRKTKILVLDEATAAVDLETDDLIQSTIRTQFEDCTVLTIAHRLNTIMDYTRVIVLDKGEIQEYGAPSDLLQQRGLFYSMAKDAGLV

For the compound `COc1cccc2c1C(=O)c1c(O)c3c(c(O)c1C2=O)C[C@@](O)(C(=O)CO)C[C@@H]3O[C@H]1C[C@H](N)[C@@H](O)[C@H](C)O1` [EPIRUBICIN], the Activity result was “substrate []”. For `COc1cc(NC(=O)Cc2cccc(-n3c(=O)c4c(C)onc4c4c(Cl)cccc43)c2)cc(OC)c1OC`, the Activity result is “inhibitor []”. Turning to `COc1cc([C@@H]2c3cc4c(cc3[C@@H](O[C@@H]3O[C@@H]5CO[C@@H](C)O[C@H]5[C@H](O)[C@H]3O)[C@H]3COC(=O)[C@H]23)OCO4)cc(OC)c1O` [ETOPOSIDE], the Activity result was “substrate []”.

Regarding `COc1cccc2c1C(=O)c1c(O)c3c(c(O)c1C2=O)C[C@@](O)(C(=O)CO)C[C@@H]3O[C@H]1C[C@H](N)[C@H](O)[C@H](C)O1` [DOXORUBICIN], the Activity result was “substrate []”. Then `CC[C@]1(O)C[C@H]2CN(CCc3c([nH]c4ccccc34)[C@@](C(=O)OC)(c3cc4c(cc3OC)N(C=O)[C@H]3[C@@](O)(C(=O)OC)[C@H](OC(C)=O)[C@]5(CC)C=CCN6CC[C@]43[C@@H]65)C2)C1` [VINCRISTINE], with “substrate []”.
